Data on one compound can be found in patent publication US11103486B2, “Treatment of autoimmune disorders and infections using antagonists of SGK1 activity” (THE JOHNS HOPKINS UNIVERSITY, priority 2011, dated 2021).

Where a SMILES comes first, the peptide text is derived from it. The star is where a group is joined. Cbz = O=C(OCc1ccccc1)*

For the assay, the system named is JunB. In words: JunB protein levels by immunoblot of nuclear extracts of CD4+ T cells activated under Th2 skewing conditions. The format is cell-based, mice. To be noted: T-SGK1−/− CD4+ T cells activated under Th2 skewing conditions; MG132 added during the final 2 hours of stimulation. As to the method: (11A) Nuclear and cytoplasmic extracts from Wt and T-SGK1−/− CD4+ T cells. Cells were purified by magnetic separation and stimulated for 72 hours in vitro with anti-CD3 and anti-CD28 and either (Th1) IL-12, IFN-γ, and anti-IL-4, or (Th2) IL-4, anti-IFN-γ, and anti-IL-12p40 skewing conditions. Cells were lysed and separated into nuclear and cytoplasmic fractions. Nuclear extracts were blotted for the expression of JunB, and Lamin B is included as a loading control. Cytosolic fractions were blotted to measure the E3 ligase activity of NEDD4L (S342), and actin is included as a loading control. (11B) Nuclear extract of Wt and T-SGK1−/− treated with MG132. As in A, but with the addition of the proteasome inhibitor MG-132 during the final 2 hours of stimulation. Nuclear fractions were blotted for JunB. (11C) Immunoprecipitates (IPs) of JunB from Wt and T-SGK1−/− CD4+ T cells skewed with IL4 and treated with MG132. As in B, but nuclear fractions were subject to IP with JunB antibody. […] Fold induction of long and short isoforms of TCF1 over no stimulation control, as analyzed by quantitative polymerase chain reaction. […] Cells were restimulated for 4 hours with phorbol 12-myristate 13-acetate (PMA) and ionomycin in the presence of a protein transport inhibitor, and analyzed for production of IFN-γ by intracellular staining. […]

For the compound `CC(C)C[C@@H](C=O)NC(=O)[C@H](CC(C)C)NC(=O)[C@H](CC(C)C)NC(=O)OCc1ccccc1` [MG132] (Cbz-Leu-Leu-Leu-aldehyde), the “JunB levels (immunoblot, nuclear fraction)” value is listed as “JunB levels increased”.
